The source of these data is patent publication US20130071328A1, “Propynoic Acid Carbamoyl Methyl-Amides and Pharmaceutical Compositions and Methods Based Thereon” (UNIVERSITY OF SOUTHERN CALIFORNIA, priority 2011, published 2013).

The test system of test [1] is MDA-MB-435 breast cancer cell line. Nature of the test: MTT cytotoxicity assay, MDA-MB-435. The test is classed as cell-based, human. The settings on record: Homo sapiens, MDA-MB-435, 72 h, 72 h exposure. From the text:
(§1) The human breast cancer cell line MDA-MB-435 and the colon cancer cell line HT29 were purchased from the American Type Cell Culture (Manassas, Va.). Colon cancer cell lines HCT116 p53^+/+ and HCT116 p53^−/− were kindly provided by Dr. Bert Vogelstein (Johns Hopkins Medical Institutions, Baltimore, Md.). The human ovarian carcinoma cell line (HEY), naturally resistant to cisplatin (CDDP), was kindly provided by Dr. Louis Dubeau (USC Norris Cancer Center). The bladder cancer cell lines were kindly provided by Dr. Richard Cote (USC Keck School of Medicine). Cells were maintained as monolayer cultures in the appropriate media: RPMI-1640 (HT29, HCT116 p53^+/+, HCT116 p53^−/−, and HEY cell lines) or DMEM (MDA-MB-435 and UMUC3 cell lines) supplemented with 10% fetal bovine serum (FBS) (HyClone, Road Logan, Utah) at 37° C. in a humidified atmosphere of 5% CO2. To remove the adherent cells from the flask for subculture and counting, cells were washed with PBS without calcium or magnesium, incubated with a small volume of 1×trypsin-EDTA solution (Sigma-Aldrich, St. Louis, Mo.) for 5 min, resuspended with fresh culture medium, and centrifuged at 1200 rpm for 5 min. All experiments were performed using cells in exponential growth phase. Cells were routinely checked for Mycoplasma contamination using PlasmaTest kit (InvivoGen, San Diego, Calif.).
(§2) Cytotoxicity was assessed by MTT assay as described previously. 43 In brief, cells were seeded in 96-well microtiter plates and allowed to attach overnight. Cells were subsequently treated with continuous exposure to corresponding drugs for 72 h. At the end of treatments, an MTT solution (at a final concentration of 0.5 mg/mL) was added to each well, and cells were incubated for 4 h at 37° C. After removal of the supernatant, DMSO was added, and the absorbance was read at 570 nm. All assays were done in triplicate. The IC50 was then determined for each drug from a plot of log(drug concentration) versus percentage of cells killed.
(Formazan colour is commonly taken as a measure of viable cells.)

Test [2] has as its system UMUC3 bladder cancer cell line. In words: MTT cytotoxicity assay, UMUC3. It is filed as cell-based. As to conditions: Homo sapiens, 72 h exposure.
Excerpt: as §1, §2

For test [3], the system named is HCT116 p53^−/− colon cancer cell line. In words: MTT cytotoxicity assay, HCT116 p53-/-. The test is classed as cell-based. The settings on record: Homo sapiens, HCT-116, 72 h exposure.
Excerpt: as §1, §2

For test [4], the system named is doxorubicin-resistant NCI/ADR-RES ovarian cancer cell line. In words: Cytotoxicity assay, NCI/ADR-RES. As to conditions: Homo sapiens. It is filed as cell-based. Here is the method: as §2
The test system of test [5] is HCT116 p53^+/+ colon cancer cell line. In words: MTT cytotoxicity assay, HCT116 p53+/+. As to conditions: Homo sapiens, HCT-116, 72 h exposure. It is filed as cell-based.
Excerpt: as §1, §2

The subject of test [6] is 5637 bladder cancer cell line. In words: MTT cytotoxicity assay, 5637. It is filed as cell-based, human. As to conditions: Homo sapiens, 72 h exposure.
Excerpt: as §1, §2

The test system of test [7] is HT29 colon cancer cell line. In words: MTT cytotoxicity assay, HT29. It is filed as cell-based. The settings on record: Homo sapiens, HT-29, 72 h exposure.
Excerpt: as §1, §2

Test [8] deals with HEY ovarian cancer cell line. Nature of the test: Cytotoxicity assay, HEY. As to conditions: Homo sapiens. It is filed as cell-based.
Excerpt: as §1, §2

The test system of test [9] is OVCAR8 ovarian cancer cell line. Nature of the test: In vitro cytotoxicity, OVCAR8. The test is classed as cell-based. The settings on record: Homo sapiens, OVCAR-8; Table 4, ovarian cancer panel. Here is the method: as §2

Some results are limits rather than exact numbers.

The IC50 is the concentration needed to halve the response being measured. Regarding `C#CC(=O)N(c1ccc(OC)c(OC)c1)C(C(=O)NC1CCCC1)c1cccs1` (centres unmarked) [Compound 3, N-[2-(Cyclopentylamino)-2-oxo-1-thien-2-ylethyl]-N-(3,4-dimethoxyphenyl)Propynamide], the IC50 in test [1] is 2 ± 0.1 µM; in test [2], above 20 µM; in [3], 9.6 ± 4.9 µM; in [4] (MTT, 72 h exposure (Table 2)) it was 0.9 ± 0.8 µM; in [5] it was 7.7 ± 1.9 µM; in [6] it was 2 ± 0.7 µM. The IC50 in test [7] stood at 5.5 ± 4.2 µM; in test [8] (MTT, 72 h exposure (Table 2)), 3.4 ± 1.5 µM.

As for `C#CC(=O)N(c1ccc(OC)cc1OC)C(C(=O)NC1CCCC1)c1cccs1` (centres unmarked) [Compound 5, N-[2-(Cyclopentylamino)-2-oxo-1-thien-2-ylethyl]-N-(2,4-dimethoxyphenyl)Propynamide], the IC50 was 1.7 ± 0.5 µM in [1]; above 20 µM in [2]; 7 ± 0.7 µM in test [3]; 0.4 µM in [4] (MTT, 72 h exposure (Table 2)); 6.9 ± 0.6 µM in test [5]; 1.7 ± 0.8 µM in test [6]. Further, the IC50 was 2.3 ± 0.3 µM in [7] and 4.1 ± 3.4 µM in test [8] (MTT, 72 h exposure (Table 2)).

As for `C#CC(=O)N(c1cccc(OC)c1)C(C(=O)NC1CCCC1)c1cccs1` (centres unmarked) [Compound 6, N-[2-(Cyclopentylamino)-2-oxo-1-thien-2-ylethyl]-N-(3-methoxyphenyl)Propynamide], the IC50 in test [2] was 6.9 ± 1.2 µM; in test [3] it was 5.6 ± 0.8 µM; in test [4] (MTT, 72 h exposure (Table 2)) it was 0.3 µM; in test [5] it was 7.2 ± 0.2 µM; in test [6] it was 0.3 µM; in [7], 2.3 ± 0.3 µM. Besides, it took 1.9 ± 0.7 µM to reach half-maximal inhibition in [8] (MTT, 72 h exposure (Table 2)) (IC50).

Regarding `C#CC(=O)N(c1cc(OC)ccc1OC)C(C(=O)NC1CCCC1)c1cccs1` (centres unmarked) [Compound 7, N-[2-(Cyclopentylamino)-2-oxo-1-thien-2-ylethyl]-N-(2,5-dimethoxyphenyl)Propynamide], the IC50 in test [1] amounted to 0.5 ± 0.3 µM; in test [2], 5.7 ± 1.5 µM; in test [3], 4.7 ± 2.3 µM; in [4] (MTT, 72 h exposure (Table 2)), 0.3 µM; in test [5], 5.7 ± 0.6 µM; in test [6] it was 0.3 µM. The IC50 amounted to 1.6 ± 1 µM in [7] and 1.5 ± 1.1 µM in [8] (MTT, 72 h exposure (Table 2)).

For the molecule `C#CC(=O)N(c1ccc2c(c1)OCCO2)C(C(=O)NC1CCCC1)c1ccccc1` (centres unmarked) [Compound 8, N-[2-(Cyclopentylamino)-2-oxo-1-phenylethyl]-N-(2,3-dihydro-1,4-benzodioxin-6-yl)Propynamide], the IC50 in [1] is 1.8 ± 0.6 µM; in test [2], above 20 µM; in test [3], above 20 µM; in test [4] (MTT, 72 h exposure (Table 2)), 0.3 µM; in [5], 17.3 ± 1.1 µM; in test [6], 1.9 ± 0.6 µM. Moreover, the IC50 in [7] turned out to be 3.2 ± 1.2 µM; in test [8] (MTT, 72 h exposure (Table 2)) it was 4.1 ± 3.4 µM.

`C#CC(=O)N(Cc1ccco1)C(C(=O)NC1CCCC1)c1ccccc1F` (centres unmarked) [Compound 10, N-[2-(Cyclopentylamino)-1-(2-fluorophenyl)-2-oxoethyl]-N-(2-furylmethyl)Propynamide]: the IC50 in [1] was 1.7 ± 0.6 µM; in [2], above 20 µM; in test [3], 13 ± 2.8 µM; in [4] (MTT, 72 h exposure (Table 2)), 1.2 ± 0.4 µM; in test [5], 10.5 µM; in test [6] it was 2.9 ± 0.8 µM. Besides, the IC50 was above 10 µM in [7] and 4.3 ± 3.9 µM in test [8] (MTT, 72 h exposure (Table 2)).

For `C#CC(=O)N(c1cc(OC)cc(OC)c1)C(C(=O)NC1CCCC1)c1ccc(OC)cc1` (centres unmarked) [Compound 11, N-[2-(Cyclopentylamino)-1-(4-methoxyphenyl)-2-oxoethyl]-N-(3,5-dimethoxyphenyl)Propynamide], the IC50 in [1] is 2.4 ± 0.1 µM; in [2], above 20 µM; in test [3], above 20 µM; in test [4] (MTT, 72 h exposure (Table 2)), 0.3 µM; in [5], 15 µM; in test [6], 1.9 ± 0.6 µM. Further, the IC50 worked out at 2.1 ± 0.4 µM in test [7] and 2.3 ± 0.4 µM in test [8] (MTT, 72 h exposure (Table 2)).

As for `C#CC(=O)N(c1cccc(C(F)(F)F)c1)C(C(=O)NC1CCCC1)c1ccc(F)cc1` (centres unmarked) [Compound 12, N-[2-(Cyclopentylamino)-1-(4-fluorophenyl)-2-oxoethyl]-N-[3-(trifluoromethyl)phenyl]Propynamide], the IC50 worked out at 5.2 ± 1.2 µM in test [1]; 8 ± 1.4 µM in test [2]; 6.9 ± 0.6 µM in test [3]; 0.4 µM in test [4] (MTT, 72 h exposure (Table 2)); 7.5 ± 0.7 µM in [5]; 0.5 ± 0.3 µM in test [6]. The IC50 amounted to 4.8 ± 3.2 µM in test [7] and 2.4 ± 0.2 µM in [8] (MTT, 72 h exposure (Table 2)).

On to `C#CC(=O)N(c1cccc(C(F)(F)F)c1)C(C(=O)NC1CCCCC1)c1cccs1` (centres unmarked) [Compound 13, N-[2-(Cyclohexylamino)-2-oxo-1-thien-2-ylethyl]-N-[3-(trifluoromethyl)phenyl]Propynamide], for which the IC50 in test [1] was 6.9 ± 0.8 µM; in test [2] it was above 20 µM; in test [3] it was 10.4 ± 0.2 µM; in test [4] (MTT, 72 h exposure (Table 2)) it was 0.4 µM; in test [5] it was 8.3 ± 1.1 µM; in [6] it was 1.6 ± 0.7 µM. For the same molecule, the IC50 stood at 6 ± 1.4 µM in test [7] and 5.2 ± 3.6 µM in test [8] (MTT, 72 h exposure (Table 2)).

Take `C#CC(=O)N(c1ccc2ccccc2c1)C(C(=O)NC1CCCC1)c1ccccc1` (centres unmarked) [Compound 14, N-[2-(Cyclopentylamino)-2-oxo-1-phenylethyl]-N-(2-naphthyl)Propynamide]: the IC50 in test [1] is 7.3 µM; in [2] it was above 20 µM; in test [3], 7.4 ± 0.8 µM; in [4] (MTT, 72 h exposure (Table 2)), 0.3 µM; in test [5] it was 6.8 ± 1.8 µM; in test [6] it was 0.5 ± 0.3 µM. Besides, the IC50 turned out to be 4.9 ± 3.4 µM in test [7] and 1.7 ± 1.1 µM in test [8] (MTT, 72 h exposure (Table 2)).

For the molecule `C#CC(=O)N(Cc1ccc2c(c1)OCO2)C(C(=O)NCc1ccccc1)c1ccccc1F` (centres unmarked) [Compound 15, N-(1,3-Benzodioxol-5-ylmethyl)-N-[2-(benzylamino)-1-(2-fluorophenyl)-2-oxoethyl]Propynamide], the IC50 in test [1] is above 10 µM; in [2], above 20 µM; in test [3] it was above 20 µM; in test [4] (MTT, 72 h exposure (Table 2)), 1.3 ± 1 µM; in [5] it was above 10 µM; in test [6], 2.8 ± 1.1 µM. For the same molecule, the IC50 in [7] was above 10 µM; in test [8] (MTT, 72 h exposure (Table 2)), above 10 µM.

Consider `C#CC(=O)N(c1cccc(C(F)(F)F)c1)C(C(=O)NCc1ccccc1)c1cccs1` (centres unmarked) [Compound 16, N-[2-(Benzylamino)-2-oxo-1-thien-2-ylethyl]-N-[3-(trifluoromethyl)-phenyl]Propynamide], for which the IC50 in [1] was 4.2 ± 3 µM; in test [2], above 20 µM; in [3], 16.1 ± 5.6 µM; in test [4] (MTT, 72 h exposure (Table 2)), 0.7 ± 0.6 µM; in test [5], 9 ± 1.4 µM; in test [6], 1.2 ± 1.1 µM. Also, the IC50 in test [7] is 7.3 ± 0.3 µM; in test [8] (MTT, 72 h exposure (Table 2)), 7.1 ± 2.6 µM.

In the case of `C#CC(=O)N(Cc1ccccc1Cl)C(C(=O)NC1CCCC1)c1ccccc1` (centres unmarked) [Compound 17, N-(2-Chlorobenzyl)-N-[2-(cyclopentylamino)-2-oxo-1-phenylethyl]Propynamide], the IC50 in test [1] is 8.2 ± 0.2 µM; in test [2], above 20 µM; in [3], 7.3 ± 1.4 µM; in test [4] (MTT, 72 h exposure (Table 2)), 2.2 ± 0.2 µM; in test [5], 7.7 ± 0.5 µM; in test [6] it was 1.8 ± 0.1 µM. In addition, the IC50 in test [7] worked out at 5.4 ± 3 µM; in [8] (MTT, 72 h exposure (Table 2)), 5.8 ± 1.3 µM.

`C#CC(=O)N(c1ccc(-n2cnnn2)c(C)c1)C(C(=O)NCC(=O)OCC)c1ccccc1F` (centres unmarked) [Compound 20]: the IC50 in test [4] (Table 4, ovarian cancer panel) was found to be 1.3 µM; in test [9], 0.2 µM.

Regarding `C#CC(=O)N(CC(N)=O)c1ccc(OC)cc1OC` [Compound 29], the IC50 in test [9] was 0.5 ± 0.3 µM.

Turning to `C#CC(=O)N(c1ccc(O)cc1OC)C(C(=O)NCC(=O)OCC)c1cccs1` (centres unmarked) [Compound 40], the IC50 in test [4] (Table 4, ovarian cancer panel) amounted to 12.8 ± 3.8 µM; in test [9] it was 10.4 ± 1.6 µM.

As to `C#CC(=O)N(c1ccc(OC)cc1OC)C(C(=O)NCC(=O)OCC)c1ccccc1` (centres unmarked) [Compound 41], the IC50 in test [9] was 0.4 ± 0.2 µM.

Take `C#CC(=O)N(Cc1ccc(OC)cc1OC)C(C(=O)NCC(=O)OCC)c1ccccc1` (centres unmarked) [Compound 42]: in test [9], the midpoint of inhibition, the IC50, lay at 3.4 ± 0.4 µM.

As to `C#CC(=O)N(c1ccc(OC)cc1OC)C(C(=O)NCC(=O)NCCN1CCOCC1)c1cccs1` (centres unmarked) [Compound 45], the IC50 is above 10 µM in test [4] (Table 4, ovarian cancer panel); 5 µM in test [9]; 0.32 µM in test [8] (Table 4, ovarian cancer panel).
